The source of these data is paper PMC9424906 (Frontiers in Pharmacology, 2022).

Data set [1] relates to MDR1. Kind of data set: in vitro. As to conditions: dog, MDCK-MDR1, 5 µM; for Papp A→B at 2 h, 5 µM: MDCK-MDR1, pH 7.4, Papp A to B; for Papp B→A at 2 h, 5 µM: MDCK-MDR1, pH 7.4, Papp B to A.
Data set [2] concerns the target T1, BCRP (Homo sapiens, UniProt Q9UNQ0).
T1 construct: host or cells: MDCK (BCRP-MDCK)
T1 sequence (Q9UNQ0 1-655): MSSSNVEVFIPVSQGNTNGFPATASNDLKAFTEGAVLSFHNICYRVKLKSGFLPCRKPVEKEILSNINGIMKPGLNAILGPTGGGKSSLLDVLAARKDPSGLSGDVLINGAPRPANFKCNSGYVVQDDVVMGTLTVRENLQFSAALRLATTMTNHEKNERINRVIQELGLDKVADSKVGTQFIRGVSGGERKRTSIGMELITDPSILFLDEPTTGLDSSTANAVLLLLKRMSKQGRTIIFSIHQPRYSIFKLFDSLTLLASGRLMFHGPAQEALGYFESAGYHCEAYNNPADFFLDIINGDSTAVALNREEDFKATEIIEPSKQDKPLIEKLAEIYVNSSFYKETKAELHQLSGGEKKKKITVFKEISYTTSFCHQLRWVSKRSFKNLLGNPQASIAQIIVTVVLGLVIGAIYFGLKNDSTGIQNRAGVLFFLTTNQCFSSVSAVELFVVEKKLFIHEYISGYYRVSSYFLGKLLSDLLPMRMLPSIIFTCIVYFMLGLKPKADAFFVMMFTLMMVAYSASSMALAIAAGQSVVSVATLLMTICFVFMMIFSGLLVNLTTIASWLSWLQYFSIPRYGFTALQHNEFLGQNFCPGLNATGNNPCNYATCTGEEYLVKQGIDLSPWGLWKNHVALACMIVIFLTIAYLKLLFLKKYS
Kind of data set: Bidirectional transport in MDCK-BCRP monolayers. It is filed as in vitro ADME. Particulars: dog, MDCK-BCRP, 5 µM. The protocol:
Caco-2 (American Type Culture Collection), MDR1-MDCK (NIH), and BCRP-MDCK (transfected by Absorption Systems) cell monolayers were grown to confluence on collagen-coated, microporous membranes in 12-well assay plates. Caco-2 cells were cultured for 27 days, MDCK-MDR1 and MDCK-BCRP cells were cultured for 8 days prior to experiments. […] The experiment was carried out in Hanks’ balanced salt solution (HBSS) containing 10 mM HEPES and 15 mM glucose at pH 7.4. HBSS in the receiver chamber also contained 1% bovine serum albumin. Cells were first pre-incubated for 0.5 h in HBSS with or without the specific inhibitor (1 µM valspodar or 0.5 µM Ko143 for MDR1 and BCRP, respectively). […] Cell monolayers were dosed on the apical side (A to B) or basolateral side (B to A) and incubated at 37°C with 5% CO2 in a humidified incubator. Samples were taken from the donor and receiver chambers at 2 h. Each experiment was performed in duplicate. All samples were assayed by LC-MS/MS. The apparent permeability (Papp) and percent recovery were calculated as described previously ([Katoh et al., 2006]; [Xia et al., 2006]; [Li et al., 2008]).

The subject of another data set is MATE1. Particulars: cited from earlier work.
Data set [3] concerns MDR1. Kind of data set: in vitro. Particulars: human, Caco-2, pH 7.4.
Another data set can be described thus: in vitro. As to conditions: human, Caco-2, pH 7.4.
Data set [4] concerns BCRP. Kind of data set: in vitro. As to conditions: human, Caco-2, pH 7.4.
A further data set concerns OAT3. Particulars: cited from earlier work.
In the next data set the target is T2, CNT1 (Homo sapiens, UniProt O00337).
T2 construct: expressed in transfected cells; host or cells: MDCK-II
T2 sequence (O00337 1-649): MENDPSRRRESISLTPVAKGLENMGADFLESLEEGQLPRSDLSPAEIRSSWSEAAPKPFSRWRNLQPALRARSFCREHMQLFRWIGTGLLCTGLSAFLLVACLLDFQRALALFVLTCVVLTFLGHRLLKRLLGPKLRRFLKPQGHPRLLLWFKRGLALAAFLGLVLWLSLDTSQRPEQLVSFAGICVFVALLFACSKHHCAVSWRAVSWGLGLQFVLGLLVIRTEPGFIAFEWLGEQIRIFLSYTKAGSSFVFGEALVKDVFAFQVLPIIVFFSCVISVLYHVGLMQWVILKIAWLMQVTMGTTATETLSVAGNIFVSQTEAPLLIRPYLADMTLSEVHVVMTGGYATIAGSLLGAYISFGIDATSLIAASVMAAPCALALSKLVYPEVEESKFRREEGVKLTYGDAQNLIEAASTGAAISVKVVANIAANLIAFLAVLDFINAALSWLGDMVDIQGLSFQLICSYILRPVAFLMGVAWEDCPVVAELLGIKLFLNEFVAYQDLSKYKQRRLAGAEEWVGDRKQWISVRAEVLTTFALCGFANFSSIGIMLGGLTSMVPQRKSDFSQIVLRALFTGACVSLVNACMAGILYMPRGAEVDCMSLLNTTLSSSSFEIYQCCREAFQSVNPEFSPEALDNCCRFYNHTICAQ
Kind of data set: Nucleoside transporter uptake, CNT1-transfected MDCK cells. It is filed as in vitro ADME. An excerpt: (§1) Each condition was run in triplicate.

A further data set deals with T3, ENT2 (Homo sapiens, UniProt Q14542).
T3 construct: expressed in transfected cells; host or cells: MDCK-II
T3 sequence (Q14542 whole entry): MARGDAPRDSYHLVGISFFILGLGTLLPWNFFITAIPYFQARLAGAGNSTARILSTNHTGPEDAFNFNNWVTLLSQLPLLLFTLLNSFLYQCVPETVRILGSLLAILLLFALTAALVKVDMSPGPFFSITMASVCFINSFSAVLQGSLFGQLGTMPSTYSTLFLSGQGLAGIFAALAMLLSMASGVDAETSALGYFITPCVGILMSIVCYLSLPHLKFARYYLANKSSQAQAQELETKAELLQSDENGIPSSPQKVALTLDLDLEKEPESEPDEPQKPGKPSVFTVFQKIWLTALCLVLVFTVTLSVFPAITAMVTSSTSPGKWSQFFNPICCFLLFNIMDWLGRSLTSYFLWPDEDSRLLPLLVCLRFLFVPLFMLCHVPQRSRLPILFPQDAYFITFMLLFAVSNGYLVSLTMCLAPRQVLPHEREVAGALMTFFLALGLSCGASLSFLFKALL
Kind of data set: Nucleoside transporter uptake, ENT2-transfected MDCK cells. It is filed as in vitro ADME.
From the text: as §1

Setting [5] is: pH 7.4, with Ko143 0.5 µM, 0.5 µM Ko143.

“Also recorded” adds a separate entry of the source.

The term Papp A→B denotes the apparent permeability from the apical to the basolateral side of a cell layer. A high value points to fast passage. Broadly, the Papp B→A is the apparent permeability from the basolateral to the apical side of a cell layer. With `N#C[C@@]1(c2ccc3c(N)ncnn23)O[C@H](CO)[C@@H](O)[C@H]1O` [GS-441524], the Papp A→B at 2 h, 5 µM was 0.484 ×10⁻⁶ cm/s in the data set on MDR1 [1] (1 µM Valspodar); 0.158 ×10⁻⁶ cm/s in the data set with MDR1 [1] (no inhibitor); below 0.198 ×10⁻⁶ cm/s at BCRP [2] (setting [5]); below 0.197 ×10⁻⁶ cm/s at BCRP [2] (pH 7.4, no inhibitor); 0.16 ×10⁻⁶ cm/s in the data set with MDR1 [3]; 0.099 ×10⁻⁶ cm/s in “in vitro”. In the data set on BCRP [4], this compound yielded a Papp A→B at 2 h, 5 µM of 0.229 ×10⁻⁶ cm/s. The Papp B→A at 2 h, 5 µM in the data set with MDR1 [1] (1 µM Valspodar) was 0.468 ×10⁻⁶ cm/s; in the data set on MDR1 [1] (no inhibitor) it was 0.521 ×10⁻⁶ cm/s; on BCRP [2] (setting [5]), below 0.281 ×10⁻⁶ cm/s; on BCRP [2] (pH 7.4, no inhibitor), 0.385 ×10⁻⁶ cm/s; with MDR1 [3] it was 0.79 ×10⁻⁶ cm/s; in “in vitro” it was 0.971 ×10⁻⁶ cm/s. In addition, in the data set on BCRP [4], the Papp B→A at 2 h, 5 µM worked out at 0.267 ×10⁻⁶ cm/s. For the same compound, the “Substrate of MATE1” value with MATE1 is given as “not a substrate”. The “Substrate of OAT3” value in the data set on OAT3 is “not a substrate”. Moreover, on CNT1, the “Substrate of CNT1” value is “not a substrate; also recorded: unlikely to be a substrate”. The Transporter uptake rate entry at CNT1 (CNT1, 10 μM, LOQ = 0.222 pmol/min/cm^2) is given as “BLQ”. Besides, the “Difference in uptake compared to control cells” value on CNT1 (CNT1-transfected cells) is recorded as “less than 2 fold”. The “Substrate of ENT2” value on ENT2 is “substrate”. The “Inhibition of uptake by reference inhibitor” value on ENT2 (ENT2-transfected cells, 100 µM adenosine) is “did not inhibit; also recorded: no inhibition was observed”.
